{
  "source": "patent US20170304309A1",
  "about": "“CAFFEINE FOR THE TREATMENT OF MYOTONIC DYSTROPHY TYPE 1 AND TYPE 2” (UNIVERSITAT DE VALÈNCIA, priority 2014, published 2017)",
  "key": {"sodium channel": {"test_system": "sodium channel", "settings": "small studies; cited from earlier work"}, "[1]": {"test_system": "DM1 pathology (splicing defects)", "settings": "cited from earlier work"}, "CAG-CTG repeat sequences": {"test_system": "CAG-CTG repeat sequences", "settings": "high doses of caffeine, close to 2 mM; cited from earlier work"}, "[2]": {"test_system": "MBNL1 expression in human DM1 myoblasts", "assay": "Immunodetection of MBNL1 in DM1 myoblasts", "assay_type": "cell-based", "method": "Fibroblasts were transdifferentiated in myoblasts by inducing expression of MyoD. Cells were plated in muscle differentiation medium (MDM) made of DMEM 4.5 g/L glucose with 1% P/S, 2% horse serum, 1% apo-transferrin (10 mg/ml), 0.1% insulin (10 mg/ml) and 0.02% doxycyclin (10 mg/ml) for 48 h. For compound testing fibroblasts were aliquoted in 24-well plate with 3.5×10^4 cells per well and were differentiated as before. […] Cells were then incubated with ABC solution (ABC kit, VECTASTAIN) for 30 min at room temperature, followed by PBT washes and incubation with streptavidin-FITC (1:1000) for 20 min."}, "[3]": {"test_system": "ribonuclear foci in DM1 fibroblasts", "assay": "Ribonuclear foci detection by in situ hybridization in DM1 fibroblasts", "settings": "caffeine in culture media, vs DMSO", "method": "Cell model of the disease (provided by the D. Furling's laboratory, Institute of Myologie, Paris) consisted of normal and DM1 (1300 CTG repeats) immortalized (hTERT) skin fibroblasts expressing conditional MyoD. […] Fibroblasts were transdifferentiated in myoblasts by inducing expression of MyoD. Cells were plated in muscle differentiation medium (MDM) made of DMEM 4.5 g/L glucose with 1% P/S, 2% horse serum, 1% apo-transferrin (10 mg/ml), 0.1% insulin (10 mg/ml) and 0.02% doxycyclin (10 mg/ml) for 48 h. For compound testing fibroblasts were aliquoted in 24-well plate with 3.5×10^4 cells per well and were differentiated as before."}, "foci": {"test_system": "foci", "settings": "WO03/020977; cited from earlier work"}, "DM1 model flies": {"test_system": "DM1 model flies", "assay": "Climbing assay in DM1 model flies", "assay_type": "in vivo, Drosophila", "settings": "1.72 mM caffeine in nutritive media vs DMSO", "procedure": "Groups of ten 5-day-old males were transferred into vials of 1.5 cm in diameter and 25 cm in height, after a period of 24 hours without anesthesia. The height reached from the bottom of the vial by each fly in a period of 10 s was recorded with a camera. For each genotype, approximately 30 flies were tested. […] We used a t-test to assess the statistical difference between the two groups of flies, fed with or without compound."}, "CUG repeats": {"test_system": "CUG repeats", "settings": "WO03/020977; cited from earlier work"}, "[4]": {"test_system": "CUG repeat RNA (6-FAM-CUG23)", "assay": "Fluorescence polarization assay with 6-FAM-CUG23 RNA", "assay_type": "binding", "settings": "increasing concentrations, up to twice those of positive control pentamidine", "procedure": "This was assessed in fluorescence polarization spectroscopy experiments in which fluorescent CUG RNA probe (carboxyfluorescein (6-FAM)-labeled) was incubated in increasing concentrations of caffeine.\nCarboxyfluorescein-labeled CUG RNA (23 CUG repeats; 6-FAM-CUG23) at 6 nM was incubated with caffeine at different concentrations in binding buffer (50 mM Tris-HCl pH 7.0, 250 mM NaCl, 50 μM ZnCl2, 10% glycerol, 1 mM DTT) on ice for 20 min in the dark. Polarization was measured in a EnVision® Multilabel Reader using as excitation filter FP480 and as emission filter FP535."}, "[5]": {"test_system": "human MBNL1 promoter under Drosophila muscleblind ME enhancer (eGFP reporter)", "assay": "eGFP reporter expression in ME:hsaP1-eGFP transgenic flies", "assay_type": "in vivo", "settings": "heterozygous ME:hsaP1-eGFP flies, 25 mg/ml caffeine in food, 8 h, vs sucrose"}, "normal fibroblasts": {"test_system": "normal fibroblasts", "assay": "MTS cell viability of normal fibroblasts exposed to caffeine", "assay_type": "cell-based, human", "settings": "highest concentration (500 μM), 24 h, relative to cells not exposed to caffeine", "procedure": "Cells were aliquoted in 96-well plate with 1.0×10^4 cells per well and incubated for 24 h. […] To measure cell viability, MTS tetrazolium salt was added to each well and was incubated for 4 h at 37° C. in a humidified chamber with 5% CO2. The conversion of MTS into soluble formazan (accomplished by dehydrogenase enzymes from metabolically active cells) was measured by absorbance at 490 nm (CellTiter 96® Aqueous Non-Radioactive Cell Profileration Assay, Promega). Data were transformed to percentage of survival relative to cells not exposed to caffeine, which established 100% viability."}},
  "data": [
    {"smiles": "Cc1cccc(C)c1OCC(C)N", "note": "(stereo not drawn) [Mexiletine, mexiletine]", "values": [
      {"measurement": "myotonia", "setting": "sodium channel", "value": "reduced"}
    ]},
    {"smiles": "N=C(N)c1ccc(OCCCCCOc2ccc(C(=N)N)cc2)cc1", "note": "[pentamidine]", "values": [
      {"measurement": "rescue of DM1 pathology", "setting": "[1]", "value": "partial rescue"}
    ]},
    {"smiles": "Cn1c(=O)c2c(ncn2C)n(C)c1=O", "note": "[caffeine]", "values": [
      {"measurement": "increase of the rate of expansion", "setting": "CAG-CTG repeat sequences", "value": "~63", "unit": "%"},
      {"measurement": "MBNL1 expression in the cytoplasm and in the cell nucleus", "setting": "[2]; 125 and 250 μM caffeine, 48 h, vs DMSO alone", "value": "increased"},
      {"measurement": "number of MBNL1-containing foci", "setting": "[2]; caffeine-treated vs DMSO-treated cells", "value": "qualitatively higher"},
      {"measurement": "mean number of ribonuclear foci per cell", "setting": "[3]", "value": "increased"},
      {"measurement": "number of foci", "setting": "foci", "value": "increases"},
      {"measurement": "climbing velocity", "setting": "DM1 model flies", "value": "significantly improved"},
      {"measurement": "binding to CUG repeats", "setting": "CUG repeats", "value": "not able to bind"},
      {"measurement": "polarization values of 6-FAM-CUG RNA (binding to CUG repeats)", "setting": "[4]", "value": "did not increase"},
      {"measurement": "expression of the eGFP reporter, normalized to total protein", "setting": "[5]", "value": "significantly increase"},
      {"measurement": "percentage of survival of normal fibroblasts (living cells)", "setting": "normal fibroblasts", "value": "greater than 50%"}
    ]}
  ]
}
